Key:
Histone deacetylase = test: Inhibition of HDAC in human HeLa cell nuclear extract using Boc-Lys(Ac)-AMC as substrate preincubated for 15 mins followed by substrate addition measured after 60 mins by fluorescence-based assay
Histone deacetylase 1 [1] = biological target: T1, Histone deacetylase 1 (Homo sapiens, UniProt Q13547); test: Inhibition of recombinant human HDAC1 using Boc-Lys(Ac)-AMC as substrate preincubated for 15 mins followed by substrate addition measured after 60 mins by fluorescence-based assay
[2] = biological target: T2, Protein deacetylase HDAC6 (Homo sapiens, UniProt Q9UBN7); test: Inhibition of recombinant human HDAC6 using Boc-Lys(Ac)-AMC as substrate preincubated for 15 mins followed by substrate addition measured after 60 mins by fluorescence-based assay
T2 sequence (Q9UBN7 whole entry): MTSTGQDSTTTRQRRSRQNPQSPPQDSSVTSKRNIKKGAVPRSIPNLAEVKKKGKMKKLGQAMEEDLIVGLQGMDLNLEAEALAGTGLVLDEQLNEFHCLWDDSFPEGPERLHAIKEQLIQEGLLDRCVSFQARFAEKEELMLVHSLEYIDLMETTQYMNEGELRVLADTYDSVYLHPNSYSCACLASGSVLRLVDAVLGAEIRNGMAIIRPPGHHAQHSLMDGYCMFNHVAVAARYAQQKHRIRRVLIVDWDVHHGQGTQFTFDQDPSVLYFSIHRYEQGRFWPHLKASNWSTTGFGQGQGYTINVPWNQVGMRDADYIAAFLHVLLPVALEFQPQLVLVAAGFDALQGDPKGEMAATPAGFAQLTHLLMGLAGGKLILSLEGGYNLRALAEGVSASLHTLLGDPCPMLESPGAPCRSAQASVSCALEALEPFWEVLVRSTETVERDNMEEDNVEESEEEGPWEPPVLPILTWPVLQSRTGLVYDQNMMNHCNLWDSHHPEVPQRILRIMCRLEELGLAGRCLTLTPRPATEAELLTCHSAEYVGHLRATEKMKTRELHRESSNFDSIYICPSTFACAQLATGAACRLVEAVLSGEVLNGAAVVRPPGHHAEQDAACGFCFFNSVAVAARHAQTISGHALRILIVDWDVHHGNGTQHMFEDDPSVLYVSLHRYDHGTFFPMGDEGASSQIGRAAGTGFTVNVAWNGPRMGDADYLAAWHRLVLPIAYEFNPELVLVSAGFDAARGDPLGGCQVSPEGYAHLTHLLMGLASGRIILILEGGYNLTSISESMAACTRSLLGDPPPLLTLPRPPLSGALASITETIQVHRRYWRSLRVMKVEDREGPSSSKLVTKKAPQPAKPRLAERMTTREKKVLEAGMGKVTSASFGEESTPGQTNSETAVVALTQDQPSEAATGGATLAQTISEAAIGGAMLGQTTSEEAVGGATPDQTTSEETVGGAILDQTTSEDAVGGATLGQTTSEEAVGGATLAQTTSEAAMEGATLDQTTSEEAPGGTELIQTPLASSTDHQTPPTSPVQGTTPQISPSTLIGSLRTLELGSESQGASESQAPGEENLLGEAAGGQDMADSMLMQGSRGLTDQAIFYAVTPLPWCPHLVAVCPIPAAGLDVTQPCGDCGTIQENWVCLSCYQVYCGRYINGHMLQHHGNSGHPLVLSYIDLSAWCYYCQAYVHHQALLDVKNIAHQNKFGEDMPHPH

MCF7 = test: cells; type: functional; conditions: Homo sapiens, MCF7, 96 h
Description: Growth inhibition of human MCF7 cells after 96 hrs by MTT assay

cells [3] = type: functional; conditions: Homo sapiens, HCT-116, 96 h
Description: Growth inhibition of human HCT116 cells after 96 hrs by MTT assay

HT-29 = test: Growth inhibition of human HT-29 cells after 96 hrs by MTT assay; type: functional; conditions: Homo sapiens, HT-29, 96 h
MDA-MB-231 = test: cells; type: functional; conditions: Homo sapiens, MDA-MB-231, 96 h
Description: Growth inhibition of human MDA-MB-231 cells after 96 hrs by MTT assay

A549 = test: cells; type: functional; conditions: Homo sapiens, A549, 96 h
Description: Growth inhibition of human A549 cells after 96 hrs by MTT assay

cells [4] = type: functional; conditions: Homo sapiens, PC-3, 96 h
Description: Growth inhibition of human PC3 cells after 96 hrs by MTT assay

cells [5] = type: functional; conditions: Homo sapiens, ASPC1, 96 h
Description: Growth inhibition of human Aspc-1 cells after 96 hrs by MTT assay

[6] = Cytotoxicity against HEK293 cells assessed as growth inhibition after 96 hrs by MTT assay; conditions: human
Histone deacetylase 2 = Histone deacetylase 2 (Homo sapiens, UniProt Q92769); test: Inhibition of recombinant human HDAC2 using Boc-Lys(Ac)-AMC as substrate preincubated for 15 mins followed by substrate addition measured after 60 mins by fluorescence-based assay
Histone deacetylase 3 = Histone deacetylase 3 (Homo sapiens, UniProt O15379); test: Inhibition of recombinant human HDAC3 using Boc-Lys(Ac)-AMC as substrate preincubated for 15 mins followed by substrate addition measured after 60 mins by fluorescence-based assay
Histone deacetylase 8 = biological target: T3, Histone deacetylase 8 (Homo sapiens, UniProt Q9BY41); test: Inhibition of recombinant human HDAC8 using Boc-Lys(TFA)-AMC as substrate preincubated for 15 mins followed by substrate addition measured after 60 mins by fluorescence-based assay
T3 sequence (Q9BY41 whole entry): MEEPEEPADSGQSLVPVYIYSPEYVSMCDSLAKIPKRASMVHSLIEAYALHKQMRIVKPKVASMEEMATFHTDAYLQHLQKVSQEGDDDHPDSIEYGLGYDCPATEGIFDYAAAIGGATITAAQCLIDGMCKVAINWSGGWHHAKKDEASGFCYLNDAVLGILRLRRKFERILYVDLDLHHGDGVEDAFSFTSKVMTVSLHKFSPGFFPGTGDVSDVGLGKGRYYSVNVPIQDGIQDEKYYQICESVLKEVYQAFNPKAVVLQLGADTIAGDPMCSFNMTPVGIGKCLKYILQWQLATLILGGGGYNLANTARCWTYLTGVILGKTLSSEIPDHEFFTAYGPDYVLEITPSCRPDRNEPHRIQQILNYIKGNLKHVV

Histone deacetylase 4 = Histone deacetylase 4 (Homo sapiens, UniProt P56524); test: Inhibition of recombinant human HDAC4 using Boc-Lys(TFA)-AMC as substrate preincubated for 15 mins followed by substrate addition measured after 60 mins by fluorescence-based assay
Histone deacetylase 11 = biological target: T4, Histone deacetylase 11 (Homo sapiens, UniProt Q96DB2); test: Inhibition of recombinant human HDAC11 using Boc-Lys(TFA)-AMC as substrate preincubated for 15 mins followed by substrate addition measured after 60 mins by fluorescence-based assay
T4 sequence (Q96DB2 whole entry): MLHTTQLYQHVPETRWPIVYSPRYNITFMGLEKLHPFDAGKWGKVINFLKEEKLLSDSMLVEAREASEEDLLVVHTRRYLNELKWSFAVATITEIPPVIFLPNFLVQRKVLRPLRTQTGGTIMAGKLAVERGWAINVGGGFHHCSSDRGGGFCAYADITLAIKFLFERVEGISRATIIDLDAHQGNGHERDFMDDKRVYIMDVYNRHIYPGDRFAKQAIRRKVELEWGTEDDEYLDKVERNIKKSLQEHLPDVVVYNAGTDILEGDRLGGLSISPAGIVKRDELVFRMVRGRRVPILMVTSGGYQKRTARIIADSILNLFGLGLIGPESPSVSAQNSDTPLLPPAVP

Histone deacetylase 1 [7] = biological target: T1, Histone deacetylase 1; test: Inhibition of HDAC1 in human HCT116 cells assessed as increase in acetylated histone H3 level after 24 hrs by Western blot analysis; type: cell-based; conditions: HCT-116
[8] = biological target: T5, Protein deacetylase HDAC6 (Homo sapiens) (UniProt Q9UBN7); test: Inhibition of HDAC6 in human HCT116 cells assessed as increase in acetylated tubulin level after 24 hrs by Western blot analysis; type: cell-based; conditions: HCT-116
T5 sequence (whole entry): T2 sequence (Q9UBN7 whole entry)

T1 sequence (Q13547 whole entry): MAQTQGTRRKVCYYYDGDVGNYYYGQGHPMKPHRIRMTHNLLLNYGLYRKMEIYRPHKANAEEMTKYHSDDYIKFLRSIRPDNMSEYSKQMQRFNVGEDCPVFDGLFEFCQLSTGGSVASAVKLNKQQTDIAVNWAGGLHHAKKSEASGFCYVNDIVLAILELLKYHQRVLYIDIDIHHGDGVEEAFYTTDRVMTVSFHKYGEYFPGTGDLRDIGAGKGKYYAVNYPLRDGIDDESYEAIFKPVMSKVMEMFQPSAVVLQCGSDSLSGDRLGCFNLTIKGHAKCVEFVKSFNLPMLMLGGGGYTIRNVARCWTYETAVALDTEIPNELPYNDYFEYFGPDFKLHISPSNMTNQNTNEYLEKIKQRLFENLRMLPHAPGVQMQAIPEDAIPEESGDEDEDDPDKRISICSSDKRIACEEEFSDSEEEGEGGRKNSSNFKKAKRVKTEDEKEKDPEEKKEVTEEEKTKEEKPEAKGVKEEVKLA
Chain of Histone deacetylase 4 (P56524 whole entry): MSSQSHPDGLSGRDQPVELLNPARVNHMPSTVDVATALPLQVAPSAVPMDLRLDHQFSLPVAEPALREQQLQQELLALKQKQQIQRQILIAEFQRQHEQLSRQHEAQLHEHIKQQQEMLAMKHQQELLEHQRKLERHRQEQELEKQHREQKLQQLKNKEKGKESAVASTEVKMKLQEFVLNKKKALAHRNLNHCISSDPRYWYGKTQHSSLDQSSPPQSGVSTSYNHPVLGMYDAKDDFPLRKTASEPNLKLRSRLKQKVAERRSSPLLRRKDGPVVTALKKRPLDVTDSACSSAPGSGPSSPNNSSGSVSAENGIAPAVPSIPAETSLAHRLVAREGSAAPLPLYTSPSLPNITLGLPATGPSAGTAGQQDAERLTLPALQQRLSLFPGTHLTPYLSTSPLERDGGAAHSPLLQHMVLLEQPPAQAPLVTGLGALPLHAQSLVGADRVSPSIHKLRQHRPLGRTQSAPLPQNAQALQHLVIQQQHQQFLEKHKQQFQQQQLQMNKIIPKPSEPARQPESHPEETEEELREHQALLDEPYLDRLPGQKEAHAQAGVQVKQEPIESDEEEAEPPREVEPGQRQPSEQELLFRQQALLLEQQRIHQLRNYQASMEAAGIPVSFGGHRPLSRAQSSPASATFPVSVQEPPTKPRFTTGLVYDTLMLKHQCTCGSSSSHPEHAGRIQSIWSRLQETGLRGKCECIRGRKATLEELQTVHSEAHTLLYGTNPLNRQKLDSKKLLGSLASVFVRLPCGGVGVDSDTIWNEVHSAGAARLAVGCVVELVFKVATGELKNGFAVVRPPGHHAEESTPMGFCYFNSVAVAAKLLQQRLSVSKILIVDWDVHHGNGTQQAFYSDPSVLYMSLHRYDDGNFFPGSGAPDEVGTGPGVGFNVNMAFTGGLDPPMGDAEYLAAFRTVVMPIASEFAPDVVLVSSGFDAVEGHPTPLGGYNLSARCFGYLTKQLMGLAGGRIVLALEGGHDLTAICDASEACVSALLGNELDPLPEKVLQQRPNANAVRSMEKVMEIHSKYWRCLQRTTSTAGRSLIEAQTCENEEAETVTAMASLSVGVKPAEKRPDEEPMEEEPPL
Chain of Histone deacetylase 2 (Q92769 whole entry): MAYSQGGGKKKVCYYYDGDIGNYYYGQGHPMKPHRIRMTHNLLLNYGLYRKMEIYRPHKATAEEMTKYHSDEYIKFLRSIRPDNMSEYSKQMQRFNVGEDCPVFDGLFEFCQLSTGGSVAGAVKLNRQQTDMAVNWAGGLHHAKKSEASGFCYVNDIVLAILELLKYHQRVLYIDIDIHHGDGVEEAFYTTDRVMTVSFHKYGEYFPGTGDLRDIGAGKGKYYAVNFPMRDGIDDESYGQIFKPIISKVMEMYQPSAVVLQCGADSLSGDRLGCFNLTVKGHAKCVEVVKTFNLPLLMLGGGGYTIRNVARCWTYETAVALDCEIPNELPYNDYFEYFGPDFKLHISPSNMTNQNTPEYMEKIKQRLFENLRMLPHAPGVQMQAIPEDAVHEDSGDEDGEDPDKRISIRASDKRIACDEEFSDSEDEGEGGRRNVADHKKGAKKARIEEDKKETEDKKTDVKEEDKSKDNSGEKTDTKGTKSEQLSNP
Chain of Histone deacetylase 3 (O15379 whole entry): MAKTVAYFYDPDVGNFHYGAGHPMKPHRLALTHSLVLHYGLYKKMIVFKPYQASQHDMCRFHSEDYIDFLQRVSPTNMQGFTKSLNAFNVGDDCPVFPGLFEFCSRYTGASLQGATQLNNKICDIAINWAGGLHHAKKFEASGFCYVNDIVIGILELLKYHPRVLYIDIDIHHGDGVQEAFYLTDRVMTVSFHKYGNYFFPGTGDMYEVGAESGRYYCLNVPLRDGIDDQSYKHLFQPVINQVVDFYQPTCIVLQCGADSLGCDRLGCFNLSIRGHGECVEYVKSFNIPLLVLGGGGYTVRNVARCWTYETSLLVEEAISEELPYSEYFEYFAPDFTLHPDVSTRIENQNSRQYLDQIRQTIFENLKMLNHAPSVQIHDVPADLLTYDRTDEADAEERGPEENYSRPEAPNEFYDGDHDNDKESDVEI

Row | SMILES | IC50 (Histone deacetylase) [µM] | IC50 (Histone deacetylase 1 [1]) [µM] | IC50 [2] [µM] | GI50 (MCF7) [µM] | GI50 (cells [3]) [µM] | GI50 (HT-29) [µM] | GI50 (MDA-MB-231) [µM] | GI50 (A549) [µM] | GI50 (cells [4]) [µM] | GI50 (cells [5]) [µM] | GI50 at 96 h [6] [µM] | IC50 (Histone deacetylase 2) [µM] | IC50 (Histone deacetylase 3) [µM] | IC50 (Histone deacetylase 8) [µM] | IC50 (Histone deacetylase 4) [µM] | IC50 (Histone deacetylase 11) [µM] | inhibition (Histone deacetylase 1 [7]) | inhibition [8]
1 | O=C(NCCCCCCS)c1cc(-c2ccc3ccccc3c2)n[nH]1 | 0.102 | 0.133 | 0.235 | > 50 | > 50 | – | – | – | – | – | – | – | – | – | – | – | – | –
2 | CSCCCCCCNC(=O)c1cc(-c2ccncc2)n[nH]1 | – | – | – | > 50 | > 50 | > 50 | > 50 | > 50 | > 50 | > 50 | > 50 | – | – | – | – | – | – | –
3 | COc1ccc(-c2cc(C(=O)NCCCCCCS)[nH]n2)cc1OC | 0.056 | 0.31 | 0.056 | 30.8 | > 50 | – | – | – | – | – | – | – | – | – | – | – | – | –
4 | O=C(NCCCCCCS)c1cc(-c2ccncc2)n[nH]1 | 0.008 | 0.012 | 0.018 | 12.2 | 25.3 | 10.2 | > 50 | 14.4 | 11 | 36.9 | 17.5 | 0.072 | 0.011 | > 10 | > 10 | > 10 | Dose-dependent effect | Dose-dependent effect
5 | O=C(NCCCCCCS)c1ccn[nH]1 | 0.081 | 0.526 | 0.092 | > 50 | > 50 | – | – | – | – | – | – | – | – | – | – | – | – | –
6 | O=C(NCCCCCCS)c1cc(-c2ccccc2)n[nH]1 | 0.023 | 0.098 | 0.03 | > 50 | > 50 | – | – | – | – | – | – | – | – | – | – | – | – | –
7 | CCCCCCCC/C=C\CCCCCCCC(=O)SCCCCCCNC(=O)c1cc(-c2ccncc2)n[nH]1 | – | – | – | 31.1 | 39.3 | 23.5 | > 50 | 33.3 | > 50 | > 50 | > 50 | – | – | – | – | – | – | –
8 | O=C(NCCCCCCS)c1cc(-c2cnccn2)n[nH]1 | 0.018 | 0.015 | 0.022 | > 50 | > 50 | – | – | – | – | – | – | 0.068 | 0.023 | > 10 | > 10 | > 10 | – | –
9 | O=C(NCCCCCCS)c1cc(-c2c[nH]c3ccccc23)n[nH]1 | 0.07 | 0.15 | 0.033 | 18.2 | > 50 | – | – | – | – | – | – | – | – | – | – | – | – | –
10 | O=C(OCc1ccccc1)SCCCCCCNC(=O)c1cc(-c2ccncc2)n[nH]1 | – | – | – | 8.37 | 18.2 | 22 | 24.7 | 13.4 | 15.4 | 32.3 | 19.7 | – | – | – | – | – | – | –
11 | CC(C)C(=O)SCCCCCCNC(=O)c1cc(-c2ccncc2)n[nH]1 | – | – | – | 15.2 | 22.7 | 25.7 | > 50 | 16.8 | 22.4 | 31.7 | > 50 | – | – | – | – | – | – | –
12 | COc1ccc(-c2cc(C(=O)NCCCCCCS)[nH]n2)cc1 | 0.15 | – | 0.167 | 14.8 | > 50 | – | – | – | – | – | – | – | – | – | – | – | – | –
13 | O=C(CCCCCCS)Nc1ccccc1 | – | – | – | > 50 | > 50 | – | – | – | – | – | – | – | – | – | – | – | – | –
14 | C=CCOC(=O)SCCCCCCNC(=O)c1cc(-c2ccncc2)n[nH]1 | – | – | – | 12.6 | 32.9 | 11.9 | 36 | 15.2 | 24.8 | 27.5 | 27.5 | – | – | – | – | – | – | –
15 | O=C(NCCCCCCS)c1cc(C2CCCCC2)n[nH]1 | 0.364 | 0.331 | 0.241 | > 50 | > 50 | – | – | – | – | – | – | – | – | – | – | – | – | –
16 | O=C(NCCCCCCS)c1cc(-c2ccc(-c3ccccc3)cc2)n[nH]1 | 0.043 | 0.225 | 0.106 | > 50 | > 50 | – | – | – | – | – | – | – | – | – | – | – | – | –
17 | COc1cc(-c2cc(C(=O)NCCCCCCS)[nH]n2)cc(OC)c1OC | 0.102 | 0.422 | 0.084 | > 50 | > 50 | – | – | – | – | – | – | – | – | – | – | – | – | –
18 | O=C(NCCCCCCS)c1cc(-c2ccccn2)n[nH]1 | 0.033 | 0.124 | 0.027 | 26.8 | > 50 | – | – | – | – | – | – | – | – | – | – | – | – | –
19 | CCC(=O)SCCCCCCNC(=O)c1cc(-c2ccncc2)n[nH]1 | – | – | – | > 50 | > 50 | > 50 | > 50 | > 50 | > 50 | > 50 | > 50 | – | – | – | – | – | – | –
20 | CC(=O)SCCCCCCNC(=O)c1cc(-c2ccncc2)n[nH]1 | – | – | – | 24.9 | 41.1 | 23.1 | > 50 | 18 | 36 | > 50 | > 50 | – | – | – | – | – | – | –
21 | O=C(NCCCCCCS)c1cc(-c2cccc3ccccc23)n[nH]1 | 0.608 | 0.429 | 0.244 | > 50 | > 50 | – | – | – | – | – | – | – | – | – | – | – | – | –
22 | CCCC(=O)SCCCCCCNC(=O)c1cc(-c2ccncc2)n[nH]1 | – | – | – | 12.1 | 23.5 | 12.4 | > 50 | 15.1 | 32.1 | 28.1 | > 50 | – | – | – | – | – | – | –
23 | Cc1cc(C(=O)NCCCCCCS)[nH]n1 | 0.715 | – | – | > 50 | > 50 | – | – | – | – | – | – | – | – | – | – | – | – | –
24 | O=C(NCCCCCCS)c1cc(-c2ccc(F)cc2)n[nH]1 | 0.245 | – | – | > 50 | > 50 | – | – | – | – | – | – | – | – | – | – | – | – | –
